Columns and labels:
Type in all cases: cell-based
[1] = system: LPS-mediated prostaglandin E2 (PGE2) production in RAW264.7 cells; test: LPS-mediated PGE2 production in RAW264.7 murine macrophage model; conditions: Mus musculus, RAW264.7, 6 h, LPS 1 μg/ml, NI = no inhibition; for inhibition at 12.5 µM: 12.5 μM test compound
Experimental: (§1) THIAA derivatives synthesized in Examples 1-19 were dissolved in dimethyl sufoxide (DMSO) and stored at −20° C. LPS was purchased from Sigma Chemicals (St. Louis, Miss.).
(§2) The effect of the THIAA derivatives on LPS-mediated prostaglandin E2 (PGE2) and nitric oxide (NO) production was evaluated in a RAW264.7 murine macrophage model. The RAW 264.7 cell line was purchased from ATCC (Manassas, Va.) and maintained according to their instructions. Cells were grown and subcultured in 96-well plates at a density of 8×10^4 cells per well, and reached 80-90% confluence the next day. THIAA derivatives were added to the cells in serum-free medium at a final concentration of 0.1% DMSO. Following one hour of incubation with the THIAA derivatives, LPS (1 μg/ml) or DMEM medium alone was added to the cells and incubation was continued for 6 hours. Stimulation of RAW 264.7 cells with LPS (1 μg/ml) for 6 hours activated the production of PGE2 and NO. Supernatant media was collected for measurement of PGE2 levels. For NO, incubations were continued overnight. Supernatant media was collected for measurement of NO levels after 16 hours of stimulation. PGE2 levels were measured using assay kits from Assay Designs, (Ann Arbor, Mich.) and NO levels were measured using assay kits from Cayman Chemicals (Ann Harbor, Mich.).
(§3) Results are summarized in Table 2, with data represented as % inhibition of inflammatory mediator production.

[2] = system: LPS-mediated nitric oxide (NO) production in RAW264.7 cells; test: LPS-mediated NO production in RAW264.7 murine macrophage model; conditions: Mus musculus, RAW264.7, 16 h, LPS 1 μg/ml; for inhibition at 12.5 µM: 12.5 μM test compound, NI = no inhibition
Experimental: as §1, §2, §3

[3] = system: LPS-mediated IL-6 production in THP-1 cells; test: LPS-mediated IL-6 production in THP-1 cells; conditions: Homo sapiens; for inhibition at 12.5 µM: 12.5 μM test compound, THP-1 cells, LPS 1 μg/ml, NI = no inhibition
Experimental: as §1
(§4) The effect of the THIAA derivatives on LPS-mediated MMP-9, IL-1β, ([…], MCP-1, RANTES, and MIP-1α was evaluated in THP-1 cells. Stimulation of THP-1 cells with LPS (1 μg/ml) activated the production of MMP-9, IL-1β, MCP-1, RANTES, and MIP-1α.
as §3

[4] = system: LPS-mediated MCP-1 production in THP-1 cells; test: LPS-mediated MCP-1 production in THP-1 cells; conditions: Homo sapiens; for inhibition at 12.5 µM: 12.5 μM test compound, THP-1 cells, LPS 1 μg/ml, NI = no inhibition
Experimental: as §1, §4, §3

[5] = system: LPS-mediated MIP-1α production in THP-1 cells; test: LPS-mediated MIP-1α production in THP-1 cells; conditions: Homo sapiens; for inhibition at 12.5 µM: 12.5 μM test compound, THP-1 cells, LPS 1 μg/ml, NI = no inhibition
Experimental: as §1, §4, §3

[6] = system: LPS-mediated RANTES production in THP-1 cells; test: LPS-mediated RANTES production in THP-1 cells; conditions: Homo sapiens; for inhibition at 12.5 µM: 12.5 μM test compound, THP-1 cells, LPS 1 μg/ml, NI = no inhibition
Experimental: as §1, §4, §3

[7] = system: LPS-mediated inflammatory mediators in RAW264.7 and THP-1 cells; test: Mean inhibition across all six inflammatory mediators; conditions: for inhibition at 12.5 µM: 12.5 μM test compound
Experimental: as §2, §4, §3
Mean inhibition across all six inflammatory mediators was calculated for each of the THIAA derivatives.

[8] = biological target: T1, PPARα (Homo sapiens, UniProt Q07869); test: PPARα reporter assay (INDIGO Biosciences); conditions: luciferase reporter cells, 20 hours; for Emax at 12.5 µM / PPARα % GW590735 (20.6 nM): 12.5 μM test compound, activity compared to GW590735; for Emax at 12.5 µM: read-out: PPARα % GW590735 (20.6 nM)
T1 sequence (Q07869 1-468): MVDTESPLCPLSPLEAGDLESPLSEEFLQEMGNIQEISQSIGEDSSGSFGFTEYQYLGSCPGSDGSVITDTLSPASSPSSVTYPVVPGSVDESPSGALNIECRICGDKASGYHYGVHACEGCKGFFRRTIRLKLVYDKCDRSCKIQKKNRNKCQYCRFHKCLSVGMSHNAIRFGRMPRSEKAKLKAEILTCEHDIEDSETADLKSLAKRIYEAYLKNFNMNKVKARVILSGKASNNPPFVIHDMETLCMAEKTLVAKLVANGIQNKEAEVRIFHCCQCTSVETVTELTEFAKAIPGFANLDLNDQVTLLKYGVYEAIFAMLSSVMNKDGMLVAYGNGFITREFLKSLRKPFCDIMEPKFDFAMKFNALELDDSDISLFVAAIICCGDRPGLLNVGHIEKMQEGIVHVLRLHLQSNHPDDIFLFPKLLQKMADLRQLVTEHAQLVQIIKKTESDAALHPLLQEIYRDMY
Experimental: (§5) The functional effect of THIAA derivatives on PPARα and PPARγ activity was evaluated using a PPAR reporter assay (INDIGO Biosciences, Pa.). This assay utilizes non-human mammalian cells engineered to provide constitutive high level expression of PPARα, or PPARγ and containing a luciferase report gene specific to the appropriate PPAR. Following activation by agonist binding, PPAR induces expression of the luciferase reporter gene. Luciferase activity therefore provides a surrogate for measuring PPAR activity in agonist-treated cells.
(§6) 0.1% DMSO was used as a solvent control for each assay. Plates were incubated for 20 hours in a humidified incubator at 37° C. and 5% CO2. After incubation, the cell medium was discarded and the cells were treated with 100 μL of luciferase detection reagent for 15 minutes. Plates were analyzed using a luminometer (Victor2, Perkin Elmer). Average relative light unit (RLU) and standard deviation were measured.

[9] = biological target: T2, PPARγ (Homo sapiens, UniProt P37231); test: PPARγ reporter assay (INDIGO Biosciences); conditions: 20 h, read-out: PPARγ % rosiglitazone (500 nM), 12.5 μM test compound; luciferase reporter cells, 20 hours; activity compared to rosiglitazone
T2 sequence (P37231 1-505): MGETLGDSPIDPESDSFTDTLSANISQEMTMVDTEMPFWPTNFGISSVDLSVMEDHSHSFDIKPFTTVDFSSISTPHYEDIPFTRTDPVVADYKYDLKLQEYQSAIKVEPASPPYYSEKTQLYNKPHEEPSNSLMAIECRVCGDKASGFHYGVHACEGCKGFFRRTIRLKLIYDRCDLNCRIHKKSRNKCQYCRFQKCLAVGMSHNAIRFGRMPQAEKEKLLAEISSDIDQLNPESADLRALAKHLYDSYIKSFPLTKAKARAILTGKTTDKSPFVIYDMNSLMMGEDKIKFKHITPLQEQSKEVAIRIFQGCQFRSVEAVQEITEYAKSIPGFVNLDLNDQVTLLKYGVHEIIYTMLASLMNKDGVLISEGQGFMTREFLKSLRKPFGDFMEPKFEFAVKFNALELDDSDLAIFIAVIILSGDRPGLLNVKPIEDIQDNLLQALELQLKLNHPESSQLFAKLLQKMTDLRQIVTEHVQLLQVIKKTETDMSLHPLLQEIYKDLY
Experimental: as §5, §6

SMILES	Emax at 12.5 µM [8] [%]	Emax at 12.5 µM [9] [%]	PPARα % GW590735 (20.6 nM) [8]	PPARα activity (positive control) ([8]; GW590735 21-5000 nM)	inhibition at 12.5 µM [1] [%]	inhibition at 12.5 µM [2] [%]	inhibition at 12.5 µM [3] [%]	inhibition at 12.5 µM [4] [%]	inhibition at 12.5 µM [5] [%]	inhibition at 12.5 µM [6] [%]	inhibition at 12.5 µM [7] [%]	inhibition at 10 µM ([1]; 10 μM (rosiglitazone)) [%]	inhibition at 10 µM ([2]; 10 μM (rosiglitazone)) [%]	inhibition at 10 µM ([3]; THP-1) [%]	inhibition at 10 µM ([4]; THP-1) [%]	inhibition at 10 µM ([5]; THP-1) [%]	inhibition at 10 µM ([6]; THP-1) [%]	inhibition at 10 µM ([7]; 10 μM (rosiglitazone)) [%]
CO/N=C(/CC(C)C)C1=C(O)[C@](O)(/C(CCC(C)C)=N/OC)[C@@H](CCC(C)C)C1=O [KDT0001/2, (4R,5R)-3,4-dihydroxy-2-(N-methoxy-3-methylbutanimidoyl)-4-(N-methoxy-4-methylpentanimidoyl)-5-(3-methylbutyl)cyclopent-2-en-1-one]	< 5	< 5	–	–	55	< 0	60	74	< 20	45	39	–	–	–	–	–	–	–
CN(CCOc1ccc(CC2SC(=O)NC2=O)cc1)c1ccccn1 (stereo not drawn) [Rosiglitazone, reference compound]	–	–	–	–	–	–	–	–	–	–	–	< 0	6	< 0	< 0	< 0	24	< 20
Cc1nc(-c2ccc(C(F)(F)F)cc2)sc1C(=O)NCc1ccc(OC(C)(C)C(=O)O)cc1 [GW590735, reference compound]	–	–	–	increased the activity	–	–	–	–	–	–	–	–	–	–	–	–	–	–

Continued, in another order:

Emax at 12.5 µM [8] [%]	Emax at 12.5 µM [9] [%]	PPARα % GW590735 (20.6 nM) [8]	PPARα activity (positive control) ([8]; GW590735 21-5000 nM)	SMILES	inhibition at 12.5 µM [1] [%]	inhibition at 12.5 µM [2] [%]	inhibition at 12.5 µM [3] [%]	inhibition at 12.5 µM [4] [%]	inhibition at 12.5 µM [5] [%]	inhibition at 12.5 µM [6] [%]	inhibition at 12.5 µM [7] [%]	inhibition at 10 µM ([1]; 10 μM (rosiglitazone)) [%]	inhibition at 10 µM ([2]; 10 μM (rosiglitazone)) [%]	inhibition at 10 µM ([3]; THP-1) [%]	inhibition at 10 µM ([4]; THP-1) [%]	inhibition at 10 µM ([5]; THP-1) [%]	inhibition at 10 µM ([6]; THP-1) [%]	inhibition at 10 µM ([7]; 10 μM (rosiglitazone)) [%]
< 5	< 5	–	–	CC(C)CCC(O)[C@@]1(O)C(O)=C(C(=O)CC(C)C)C(=O)[C@@H]1CCC(C)C (stereo partly drawn) [KDT0039, (4R,5R)-3,4-dihydroxy-4-(1-hydroxy-4-methylpentyl)-2-(3-methylbutanoyl)-5-(3-methylbutyl)cyclopent-2-en-1-one]	< 0	< 20	22	50	23	58	26	–	–	–	–	–	–	–
< 5	< 5	–	–	CC(C)CCC(=O)[C@@]1(O)C(=O)/C(=C(\CC(C)C)NCCO)C(=O)[C@@H]1CCC(C)C [KDT0017, (4R,5R)-4-hydroxy-2-{1[(2-hydroxyethyl)amino]-3-methylbutylidene}-5-(3-methylbutyl)-4-(4-methylpentanoyl)cyclopentane-1,3-dione]	< 0	< 20	50	80	< 0	< 0	23	–	–	–	–	–	–	–
< 5	< 5	–	–	CN/C(CC(C)C)=C1\C(=O)[C@H](CCC(C)C)[C@@](O)(C(=O)CCC(C)C)C1=O [KDT0020, (4R,5R)-4-hydroxy-5-(3-methylbutyl)-2-[3-methyl-1-(methylamino)butylidene]-4-(4-methylpentanoyl)cyclopentane-1,3-dione]	75	< 20	70	82	< 20	35	46	–	–	–	–	–	–	–
< 5	< 5	–	–	CC(C)CCC(=O)[C@@]1(O)C(=O)/C(=C(\CC(C)C)NCc2ccccc2)C(=O)[C@@H]1CCC(C)C [KDT0024, (4R,5R)-2-[1-(benzylamino)-3-methylbutylidene]-4-hydroxy-5-(3-methylbutyl)-4-(4-methylpentanoyl)cyclopentane-1,3-dione]	81	27	53	80	< 0	20	44	–	–	–	–	–	–	–
< 5	≥ 5	no effect	–	CC(C)CCC(=O)[C@@]1(OC(=O)C(C)(C)C)C(O)=C(C(=O)CC(C)C)C(=O)[C@@H]1CCC(C)C [KDT0033, (1S,5R)-2-hydroxy-3-(3-methylbutanoyl)-5-(3-methylbutyl)-1-(4-methylpentanoyl)-4-oxocyclopent-2-en-1-yl 2,2-dimethylpropanoate]	–	> 50	87	100	95	97	~90	–	–	–	–	–	–	–
9	5	dual PPARα and PPARγ agonists	–	CC(C)CCC(=O)[C@@]1(OC(=O)CC(C)(C)C)C(O)=C(C(=O)CC(C)C)C(=O)[C@@H]1CCC(C)C [KDT0034, (1S,5R)-2-hydroxy-3-(3-methylbutanoyl)-5-(3-methylbutyl)-1-(4-methylpentanoyl)-4-oxocyclopent-2-en-1-yl 3,3-dimethylbutanoate]	–	> 50	84	100	94	98	~90	–	–	–	–	–	–	–
< 5	–	no effect	–	CC(C)CCC(=O)[C@@]1(OC(=O)OCC(C)C)C(O)=C(C(=O)C(C)C)C(=O)[C@@H]1CCC(C)C [KDT0037, (1S,5R)-2-hydroxy-5-(3-methylbutyl)-1-(4-methylpentanoyl)-3-(2-methylpropanoyl)-4-oxocyclopent-2-en-1-yl 2-methylpropyl carbonate]	–	–	61	98	22	83	72	–	–	–	–	–	–	–

— patent US10343977B2, “Tetrahydro-isohumulone derivatives, methods of making and using” (KINDEX PHARMACEUTICALS, INC., priority 2012, dated 2019)
